Reference: ChEMBL document CHEMBL1201862, “PubChem BioAssay data set” (2004)
Calls of active or inactive are those of the source.

Columns and labels:
Mu-type opioid receptor = Mu-type opioid receptor (Homo sapiens, UniProt P35372); assay type: functional, cell-based;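 also: U2OS cells with beta-arrestin recruitment to OPRM1 by beta-gal complementation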
[1] = biological target: 5-hydroxytryptamine receptor 2A (Mus musculus, UniProt P35363); assay type: functional, cell-based;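 also: CHO-K1 cells with tagged receptor and beta-arrestin; agonist potency measured as compound-induced activation of the receptor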
Chain of 5-hydroxytryptamine receptor 2A (P35363 whole entry): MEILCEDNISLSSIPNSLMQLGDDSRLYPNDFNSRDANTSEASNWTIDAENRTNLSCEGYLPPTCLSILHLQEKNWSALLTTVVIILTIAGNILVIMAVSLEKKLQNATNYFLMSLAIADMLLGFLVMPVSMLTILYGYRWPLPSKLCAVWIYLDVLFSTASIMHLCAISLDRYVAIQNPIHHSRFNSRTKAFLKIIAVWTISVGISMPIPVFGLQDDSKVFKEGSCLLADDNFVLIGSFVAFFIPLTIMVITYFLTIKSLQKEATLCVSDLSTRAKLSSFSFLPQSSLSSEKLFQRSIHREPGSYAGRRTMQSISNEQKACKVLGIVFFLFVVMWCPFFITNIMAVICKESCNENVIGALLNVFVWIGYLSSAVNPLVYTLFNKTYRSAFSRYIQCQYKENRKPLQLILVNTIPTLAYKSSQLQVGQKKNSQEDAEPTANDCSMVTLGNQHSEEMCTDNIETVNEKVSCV

Large T antigen = Large T antigen (Simian virus 40, UniProt P03070); assay type: functional, Betapolyomavirus macacae;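 also: Confirmatory-stage PubChem screen for compounds that inhibit SV40 T antigen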
Chain of Large T antigen (P03070 whole entry): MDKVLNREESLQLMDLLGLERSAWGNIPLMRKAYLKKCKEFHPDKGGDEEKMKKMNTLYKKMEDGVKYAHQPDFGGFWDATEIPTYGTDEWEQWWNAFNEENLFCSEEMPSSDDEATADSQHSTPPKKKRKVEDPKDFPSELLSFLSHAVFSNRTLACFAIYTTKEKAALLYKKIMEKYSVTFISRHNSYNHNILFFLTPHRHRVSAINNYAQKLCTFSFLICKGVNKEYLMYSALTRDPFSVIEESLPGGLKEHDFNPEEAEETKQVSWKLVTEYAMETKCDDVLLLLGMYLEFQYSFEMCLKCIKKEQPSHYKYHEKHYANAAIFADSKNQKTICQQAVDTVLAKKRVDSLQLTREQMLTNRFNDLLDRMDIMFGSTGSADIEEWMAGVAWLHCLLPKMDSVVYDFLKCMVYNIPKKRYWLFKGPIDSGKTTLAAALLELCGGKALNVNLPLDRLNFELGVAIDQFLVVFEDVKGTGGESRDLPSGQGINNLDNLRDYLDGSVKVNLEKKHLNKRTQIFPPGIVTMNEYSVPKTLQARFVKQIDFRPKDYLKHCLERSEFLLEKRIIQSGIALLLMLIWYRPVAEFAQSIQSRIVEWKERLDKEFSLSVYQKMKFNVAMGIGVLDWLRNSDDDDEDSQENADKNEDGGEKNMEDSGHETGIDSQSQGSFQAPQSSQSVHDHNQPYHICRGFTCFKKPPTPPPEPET

[2] = biological target: Induced myeloid leukemia cell differentiation protein Mcl-1 (Homo sapiens, UniProt Q07820); assay type: functional
Chain of Induced myeloid leukemia cell differentiation protein Mcl-1 (Q07820 whole entry): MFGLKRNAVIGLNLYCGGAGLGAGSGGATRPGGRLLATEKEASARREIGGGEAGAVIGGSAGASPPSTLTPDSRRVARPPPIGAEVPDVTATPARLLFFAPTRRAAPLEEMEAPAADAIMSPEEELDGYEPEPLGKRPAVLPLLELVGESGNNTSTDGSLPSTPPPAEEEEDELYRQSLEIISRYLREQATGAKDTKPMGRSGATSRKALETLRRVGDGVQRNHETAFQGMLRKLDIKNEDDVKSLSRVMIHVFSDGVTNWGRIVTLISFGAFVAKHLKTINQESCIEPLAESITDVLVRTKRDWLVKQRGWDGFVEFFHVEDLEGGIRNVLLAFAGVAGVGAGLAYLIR

[3] = biological target: T1, Histone-lysine N-methyltransferase NSD2 (Homo sapiens, UniProt O96028); assay type: biochemical
T1 sequence (O96028 whole entry): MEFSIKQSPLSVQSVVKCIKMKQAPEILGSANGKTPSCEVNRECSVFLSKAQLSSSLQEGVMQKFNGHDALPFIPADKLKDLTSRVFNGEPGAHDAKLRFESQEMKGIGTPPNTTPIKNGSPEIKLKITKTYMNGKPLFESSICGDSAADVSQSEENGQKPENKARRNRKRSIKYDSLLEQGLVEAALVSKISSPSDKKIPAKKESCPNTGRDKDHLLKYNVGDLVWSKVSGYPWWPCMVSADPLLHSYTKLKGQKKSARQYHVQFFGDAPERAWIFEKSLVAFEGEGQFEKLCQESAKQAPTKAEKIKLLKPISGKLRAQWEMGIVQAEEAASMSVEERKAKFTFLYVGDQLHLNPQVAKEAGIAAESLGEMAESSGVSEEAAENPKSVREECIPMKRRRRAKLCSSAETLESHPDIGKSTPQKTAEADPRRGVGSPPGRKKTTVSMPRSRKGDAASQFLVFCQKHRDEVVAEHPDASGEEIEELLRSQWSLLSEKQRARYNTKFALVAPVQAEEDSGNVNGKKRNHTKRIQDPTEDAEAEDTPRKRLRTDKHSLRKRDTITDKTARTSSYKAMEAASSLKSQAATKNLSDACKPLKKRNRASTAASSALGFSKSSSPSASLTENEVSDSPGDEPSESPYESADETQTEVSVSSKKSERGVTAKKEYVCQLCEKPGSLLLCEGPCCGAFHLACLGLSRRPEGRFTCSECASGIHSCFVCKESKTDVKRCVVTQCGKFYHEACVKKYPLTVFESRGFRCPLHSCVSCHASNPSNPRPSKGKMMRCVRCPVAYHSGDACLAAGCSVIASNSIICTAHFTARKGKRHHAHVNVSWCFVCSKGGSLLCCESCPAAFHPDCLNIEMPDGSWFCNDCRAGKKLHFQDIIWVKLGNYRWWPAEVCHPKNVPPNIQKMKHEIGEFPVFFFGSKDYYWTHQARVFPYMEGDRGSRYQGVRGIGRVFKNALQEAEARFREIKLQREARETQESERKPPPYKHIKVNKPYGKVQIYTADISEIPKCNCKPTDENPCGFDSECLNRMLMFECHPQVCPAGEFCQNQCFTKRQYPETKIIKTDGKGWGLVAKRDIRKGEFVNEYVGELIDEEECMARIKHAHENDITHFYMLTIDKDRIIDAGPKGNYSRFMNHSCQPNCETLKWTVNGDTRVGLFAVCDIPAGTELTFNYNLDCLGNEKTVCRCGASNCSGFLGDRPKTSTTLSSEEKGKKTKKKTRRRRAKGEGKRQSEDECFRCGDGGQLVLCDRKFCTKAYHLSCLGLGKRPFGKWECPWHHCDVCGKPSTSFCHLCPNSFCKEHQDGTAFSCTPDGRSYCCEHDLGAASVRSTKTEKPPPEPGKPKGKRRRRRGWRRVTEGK

Fatty acid synthase = Fatty acid synthase (Homo sapiens, UniProt P49327); test: inhibition of human FAS-TE enzyme activity – biochemical, kinetic fluorescence intensity, dose response (AID 624326); assay type: functional;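 also: rate of fluorescence rise from hydrolysis of a fluorogenic O-methyl fluorescein ester substrate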
Chain of Fatty acid synthase (P49327 whole entry): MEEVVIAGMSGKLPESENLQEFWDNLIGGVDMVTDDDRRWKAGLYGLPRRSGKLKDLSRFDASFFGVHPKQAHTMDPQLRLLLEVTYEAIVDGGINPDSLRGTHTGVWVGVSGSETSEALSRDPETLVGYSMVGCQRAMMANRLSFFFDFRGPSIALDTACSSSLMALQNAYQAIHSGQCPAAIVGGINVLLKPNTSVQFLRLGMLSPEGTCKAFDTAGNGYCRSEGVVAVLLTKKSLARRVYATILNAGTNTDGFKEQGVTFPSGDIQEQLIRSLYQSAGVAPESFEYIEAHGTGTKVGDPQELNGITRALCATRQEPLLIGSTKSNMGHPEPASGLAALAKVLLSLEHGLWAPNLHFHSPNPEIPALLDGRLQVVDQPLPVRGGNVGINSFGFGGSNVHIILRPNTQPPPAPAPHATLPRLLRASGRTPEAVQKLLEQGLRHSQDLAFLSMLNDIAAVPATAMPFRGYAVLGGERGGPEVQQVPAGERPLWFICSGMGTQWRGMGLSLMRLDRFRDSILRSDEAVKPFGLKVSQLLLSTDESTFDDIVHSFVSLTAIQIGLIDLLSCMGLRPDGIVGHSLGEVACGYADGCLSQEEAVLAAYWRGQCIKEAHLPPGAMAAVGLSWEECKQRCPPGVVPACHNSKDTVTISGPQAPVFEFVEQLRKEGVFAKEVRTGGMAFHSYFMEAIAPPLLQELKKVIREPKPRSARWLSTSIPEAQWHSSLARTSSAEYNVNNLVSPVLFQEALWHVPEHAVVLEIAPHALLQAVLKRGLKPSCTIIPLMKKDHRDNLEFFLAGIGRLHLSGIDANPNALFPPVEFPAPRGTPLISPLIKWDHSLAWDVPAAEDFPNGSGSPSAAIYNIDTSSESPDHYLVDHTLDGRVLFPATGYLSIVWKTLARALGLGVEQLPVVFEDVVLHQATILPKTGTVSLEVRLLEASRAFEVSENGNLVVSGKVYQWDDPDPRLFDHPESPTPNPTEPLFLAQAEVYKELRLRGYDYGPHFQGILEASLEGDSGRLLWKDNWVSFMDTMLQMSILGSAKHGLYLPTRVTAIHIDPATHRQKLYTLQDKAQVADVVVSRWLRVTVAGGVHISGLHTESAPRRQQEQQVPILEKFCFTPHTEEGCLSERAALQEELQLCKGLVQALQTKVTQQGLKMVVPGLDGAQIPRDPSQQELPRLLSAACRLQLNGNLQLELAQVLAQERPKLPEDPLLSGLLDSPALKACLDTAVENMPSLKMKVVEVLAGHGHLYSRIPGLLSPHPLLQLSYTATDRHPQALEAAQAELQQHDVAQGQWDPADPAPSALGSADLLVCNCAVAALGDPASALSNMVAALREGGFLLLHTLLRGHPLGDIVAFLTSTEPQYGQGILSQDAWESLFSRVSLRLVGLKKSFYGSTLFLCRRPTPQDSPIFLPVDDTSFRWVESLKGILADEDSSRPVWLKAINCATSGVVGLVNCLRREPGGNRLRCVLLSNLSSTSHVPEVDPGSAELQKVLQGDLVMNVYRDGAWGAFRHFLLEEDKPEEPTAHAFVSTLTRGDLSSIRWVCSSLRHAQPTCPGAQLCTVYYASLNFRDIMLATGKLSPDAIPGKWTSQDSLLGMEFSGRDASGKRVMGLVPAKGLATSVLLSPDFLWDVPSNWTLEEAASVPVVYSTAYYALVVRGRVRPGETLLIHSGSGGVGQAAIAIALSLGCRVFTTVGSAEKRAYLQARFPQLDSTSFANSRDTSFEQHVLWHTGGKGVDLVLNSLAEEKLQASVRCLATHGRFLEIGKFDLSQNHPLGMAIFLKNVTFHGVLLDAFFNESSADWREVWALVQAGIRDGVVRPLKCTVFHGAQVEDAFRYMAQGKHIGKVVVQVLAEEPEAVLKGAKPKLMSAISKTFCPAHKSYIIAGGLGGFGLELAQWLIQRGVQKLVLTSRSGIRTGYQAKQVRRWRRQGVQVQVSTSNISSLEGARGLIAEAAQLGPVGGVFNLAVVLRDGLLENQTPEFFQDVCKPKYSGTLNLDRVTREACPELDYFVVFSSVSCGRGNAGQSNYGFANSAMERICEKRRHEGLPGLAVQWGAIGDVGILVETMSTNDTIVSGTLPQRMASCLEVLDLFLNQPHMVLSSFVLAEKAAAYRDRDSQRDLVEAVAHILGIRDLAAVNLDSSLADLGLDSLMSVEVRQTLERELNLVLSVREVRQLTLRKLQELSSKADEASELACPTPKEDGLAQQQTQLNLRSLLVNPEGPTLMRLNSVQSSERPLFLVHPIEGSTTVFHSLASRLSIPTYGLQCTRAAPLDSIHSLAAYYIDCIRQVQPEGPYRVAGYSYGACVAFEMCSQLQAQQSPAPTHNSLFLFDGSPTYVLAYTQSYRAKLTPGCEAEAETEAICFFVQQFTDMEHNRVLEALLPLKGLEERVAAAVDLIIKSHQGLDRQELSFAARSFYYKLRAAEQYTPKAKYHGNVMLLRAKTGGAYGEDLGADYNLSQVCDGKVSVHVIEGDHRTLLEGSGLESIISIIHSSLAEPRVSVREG

[4] = Trypanosoma cruzi growth suppression in host cells – NIH3T3 host cells, beta-gal luminescence, confirmation (AID 2044); assay type: functional, cell-based;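 also: intracellular parasites grown in NIH/3T3 mouse fibroblasts as host cells; luminescent beta-galactosidase reporter signal from transgenic T. cruzi replicating inside host cells; inhibitors lower the luminescence signal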
[5] = NIH3T3 cell viability loss – ATP luminescence, mouse fibroblasts, counter-screen, dose response (AID 2010); assay type: functional, cell-based;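 also: cells exposed to compound for about 90 hours before reading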
Paired box protein Pax-8 = Paired box protein Pax-8 (Homo sapiens, UniProt Q06710); test: PAX8 transcriptional activity inhibition in RMG-I – RMG-I cells, luciferase, cherry-pick, dose response (AID 687027); assay type: functional, cell-based;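 also: luciferase reporter driven by Pax8 target thyroperoxidase promoter measured by SteadyGlo luminescence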
Chain of Paired box protein Pax-8 (Q06710 whole entry): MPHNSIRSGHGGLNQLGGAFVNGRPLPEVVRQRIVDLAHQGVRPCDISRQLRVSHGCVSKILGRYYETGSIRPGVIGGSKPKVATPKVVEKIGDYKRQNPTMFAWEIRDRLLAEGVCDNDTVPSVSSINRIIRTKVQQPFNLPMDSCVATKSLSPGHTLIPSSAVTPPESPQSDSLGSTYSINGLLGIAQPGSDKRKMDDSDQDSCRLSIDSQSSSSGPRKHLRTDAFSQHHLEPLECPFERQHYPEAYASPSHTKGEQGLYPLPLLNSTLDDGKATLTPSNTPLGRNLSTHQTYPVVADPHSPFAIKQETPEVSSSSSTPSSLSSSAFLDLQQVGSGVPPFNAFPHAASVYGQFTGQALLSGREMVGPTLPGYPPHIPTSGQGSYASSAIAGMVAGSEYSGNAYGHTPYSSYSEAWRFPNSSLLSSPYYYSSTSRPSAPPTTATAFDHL

[6] = general cell-killing toxicity readout – plate reader, dry powder samples, cytotoxicity control for PAX8 inhibitor project, dose response (AID 743021); assay type: functional, cell-based
cells = assay type: functional, cell-based
[7] = biological target: T2, Nuclear receptor subfamily 0 group B member 1 (Homo sapiens, UniProt P51843); assay type: functional, cell-based;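 also: HEK293T cells transfected with SF-1 and DAX-1 plus StAR promoter luciferase reporter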
T2 sequence (P51843 whole entry): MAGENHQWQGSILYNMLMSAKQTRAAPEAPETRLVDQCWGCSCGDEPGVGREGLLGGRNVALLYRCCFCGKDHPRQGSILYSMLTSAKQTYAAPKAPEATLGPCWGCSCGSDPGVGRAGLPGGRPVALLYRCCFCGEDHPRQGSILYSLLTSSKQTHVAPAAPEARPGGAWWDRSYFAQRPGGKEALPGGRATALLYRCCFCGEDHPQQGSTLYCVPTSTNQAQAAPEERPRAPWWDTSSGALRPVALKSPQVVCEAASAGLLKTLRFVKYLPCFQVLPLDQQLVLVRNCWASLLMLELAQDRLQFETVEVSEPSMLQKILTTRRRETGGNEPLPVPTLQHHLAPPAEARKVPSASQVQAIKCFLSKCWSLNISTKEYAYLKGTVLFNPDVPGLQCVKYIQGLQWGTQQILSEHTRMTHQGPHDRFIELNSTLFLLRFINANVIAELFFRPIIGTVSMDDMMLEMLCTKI

[8] = biological target: T3, Adenosylmethionine-8-amino-7-oxononanoate aminotransferase (Mycobacterium tuberculosis, UniProt P9WQ81); test: Mycobacterium tuberculosis BioA enzyme inhibitor Measured in Biochemical System Using Plate Reader - 2163-02_Inhibitor_Dose_CherryPick_Activity.; assay type: functional, Mycobacterium tuberculosis UT205
T3 sequence (P9WQ81 whole entry): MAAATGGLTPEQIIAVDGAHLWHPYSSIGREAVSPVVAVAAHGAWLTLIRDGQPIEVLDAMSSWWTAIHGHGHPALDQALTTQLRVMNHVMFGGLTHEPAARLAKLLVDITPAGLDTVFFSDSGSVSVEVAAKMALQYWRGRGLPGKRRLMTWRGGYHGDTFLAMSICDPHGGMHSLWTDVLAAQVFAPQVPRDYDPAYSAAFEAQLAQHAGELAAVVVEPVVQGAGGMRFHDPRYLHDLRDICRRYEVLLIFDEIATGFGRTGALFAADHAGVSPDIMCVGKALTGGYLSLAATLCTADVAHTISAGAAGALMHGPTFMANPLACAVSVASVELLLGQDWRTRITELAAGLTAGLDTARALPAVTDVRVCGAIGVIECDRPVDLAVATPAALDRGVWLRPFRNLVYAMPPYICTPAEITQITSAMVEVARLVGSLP

[9] = biological target: T4, DNA repair and recombination protein RAD54-like (Homo sapiens, UniProt Q92698); test: RAD54 Holliday junction migration blockers – biochemical, fluorescence, cherry-picked samples, dose series, confirmation (AID 651657); assay type: functional
T4 sequence (Q92698 whole entry): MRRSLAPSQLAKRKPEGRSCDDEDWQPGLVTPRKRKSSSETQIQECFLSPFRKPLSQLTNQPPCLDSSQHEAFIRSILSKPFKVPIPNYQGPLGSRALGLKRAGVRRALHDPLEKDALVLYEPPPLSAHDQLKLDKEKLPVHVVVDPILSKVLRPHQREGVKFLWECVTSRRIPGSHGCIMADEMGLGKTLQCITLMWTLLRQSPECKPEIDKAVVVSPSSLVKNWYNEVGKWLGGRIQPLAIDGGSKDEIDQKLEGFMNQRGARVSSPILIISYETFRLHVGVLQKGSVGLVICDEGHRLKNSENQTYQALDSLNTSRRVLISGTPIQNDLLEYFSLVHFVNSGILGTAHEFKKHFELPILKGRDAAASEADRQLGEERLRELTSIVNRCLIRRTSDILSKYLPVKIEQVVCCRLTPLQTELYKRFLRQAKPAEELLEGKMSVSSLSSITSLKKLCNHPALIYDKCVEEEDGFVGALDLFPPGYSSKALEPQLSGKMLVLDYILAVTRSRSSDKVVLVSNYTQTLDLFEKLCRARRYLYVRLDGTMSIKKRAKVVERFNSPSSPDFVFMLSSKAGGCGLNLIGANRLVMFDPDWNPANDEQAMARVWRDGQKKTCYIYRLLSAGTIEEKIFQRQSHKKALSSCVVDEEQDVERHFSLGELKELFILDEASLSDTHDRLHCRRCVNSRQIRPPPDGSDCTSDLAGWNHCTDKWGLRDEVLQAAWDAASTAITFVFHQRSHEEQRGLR

[10] = biological target: T5, DNA repair protein RAD52 homolog (Homo sapiens, UniProt P43351); assay type: functional, biochemical
T5 sequence (P43351 whole entry): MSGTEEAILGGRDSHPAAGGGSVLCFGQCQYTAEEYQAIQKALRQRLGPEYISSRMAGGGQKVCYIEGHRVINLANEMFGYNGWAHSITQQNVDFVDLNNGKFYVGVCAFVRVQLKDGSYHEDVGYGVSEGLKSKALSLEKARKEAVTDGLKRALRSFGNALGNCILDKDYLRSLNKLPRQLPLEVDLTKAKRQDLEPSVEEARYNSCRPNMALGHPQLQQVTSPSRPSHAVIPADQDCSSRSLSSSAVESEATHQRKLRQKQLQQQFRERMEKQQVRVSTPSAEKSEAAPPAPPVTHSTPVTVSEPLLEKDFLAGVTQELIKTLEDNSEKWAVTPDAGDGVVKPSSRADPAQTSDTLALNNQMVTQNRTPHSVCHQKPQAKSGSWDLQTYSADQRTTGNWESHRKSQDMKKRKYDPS

[11] = A2780 cell killing – plate reader, dry powder samples, cytotoxicity control, dose response (AID 743046); assay type: functional, cell-based
[12] = OVCAR-3 cell viability loss – plate reader, dry powder samples, PAX8 inhibitor project, dose response (AID 743044); assay type: functional, cell-based
[13] = IGROV1 cell killing – plate reader, dry powder samples, PAX8 inhibitor project, dose response (AID 743043); assay type: functional, cell-based; details: IGROV-1
[14] = OVCAR8 cell viability loss – plate reader, dry powder samples, PAX8 project, dose response (AID 743197); assay type: functional, cell-based; details: OVCAR-8
[15] = P. falciparum Dd2 growth inhibitors, dose response, SYBR Green, cherry-picked samples (AID 1159567); assay type: functional, cell-based
[16] = toxicity to human hepatoma HepG2 cells – cell-based, cherry-picked samples, cytotoxicity control, dose response (AID 1159577); assay type: functional

Chain of Mu-type opioid receptor (P35372 whole entry): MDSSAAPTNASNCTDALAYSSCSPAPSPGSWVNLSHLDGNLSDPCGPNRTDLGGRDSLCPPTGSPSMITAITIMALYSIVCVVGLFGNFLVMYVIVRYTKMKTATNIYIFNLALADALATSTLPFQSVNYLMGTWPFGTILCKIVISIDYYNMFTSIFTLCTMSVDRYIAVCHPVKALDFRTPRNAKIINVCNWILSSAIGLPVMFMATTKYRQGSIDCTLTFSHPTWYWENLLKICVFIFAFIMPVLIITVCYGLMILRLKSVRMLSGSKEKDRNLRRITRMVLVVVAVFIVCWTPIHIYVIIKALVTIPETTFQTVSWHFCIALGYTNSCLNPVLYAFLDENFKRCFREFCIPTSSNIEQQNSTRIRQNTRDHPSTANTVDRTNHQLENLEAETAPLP

Clc1ccccc1CN1CCN(c2ccccc2)CC1
EC50 (Mu-type opioid receptor): 92.5 µM (inactive) | EC50 [1]: 0.553 µM (active)

Cc1ccc(C2=NC(=O)/C(=C/c3cc(O)c(O)c(Br)c3)S2)cc1
IC50 (Large T antigen): 4.91 µM (active) | IC50 [2]: 0.767 µM (active) | AC50 [3]: 3.45 µM (active)

Nc1n[nH]c(N2CCN(Cc3ccccc3)CC2)n1
EC50 (Mu-type opioid receptor): 92.5 µM (inactive) | EC50 [1]: 5.59 µM (active)

O=C(CC(c1ccccc1)c1ccccc1)NCC(O)c1ccc([N+](=O)[O-])cc1 (stereo not drawn)
IC50 (Fatty acid synthase): 13.5 µM (active)

COc1ccc(/C=C2\CN(Cc3ccccc3)C/C(=C\c3ccc(OC)cc3OC)C2=O)c(OC)c1
EC50 [4]: 1.83 µM (active) | EC50 [5]: 9.01 µM (active) | AC50 (Paired box protein Pax-8): 10.4 µM (active) | AC50 [6]: 42.3 µM (active)

Nc1nc(CN2CCN(c3ccccn3)CC2)nc(Nc2ccc(Cl)cc2)n1
EC50 (Mu-type opioid receptor): 92.5 µM (inactive) | EC50 [1]: 1.51 µM (active)

COc1cccc(/C=C/C(=O)NNC(=O)c2ccccc2)c1OC
IC50 (cells): > 67.6 µM (inactive) | IC50 [7]: > 67.6 µM (inactive)

OC[C@H]1O[C@H](c2nc(-c3nc(-c4cccs4)no3)cs2)C[C@@H]1O
IC50 (cells): > 67.5 µM (inactive) | IC50 [7]: > 67.5 µM (inactive)

O=C(c1ccc(C[S+]([O-])c2ccccc2Cl)o1)N1CCN(C2CCCCC2)CC1 (stereo not drawn)
IC50 (cells): > 67.5 µM (inactive) | IC50 [7]: > 67.5 µM (inactive)

COc1ccc(Cc2c(-c3ccc(OC)c(OC)c3)nc3c(C)cc(Br)cn23)c(C)c1
AC50 [8]: 6.62 µM (active) | AC50 [9]: 14.8 µM (active) | AC50 [10]: 15.5 µM (active)

CC(C)=CCC/C(C)=C/CN1C(=O)N(c2ccc(F)cc2)[C@H]2C[C@@H](c3ccccc3)[C@@H](C)[C@@H](C(=O)N3CCOCC3)C[C@H]21
AC50 (Paired box protein Pax-8): 2.66 µM (active) | AC50 [6]: 42 µM (active)

COc1ccc(S(=O)(=O)Nc2ccc3c(c2)C(=O)N([C@H](C)CO)C[C@H](C)[C@@H](CN(C)S(=O)(=O)c2ccc(F)cc2)OCCCC[C@H](C)O3)cc1
AC50 (Paired box protein Pax-8): 3.96 µM (active) | AC50 [11]: 34.7 µM (active) | AC50 [12]: 12.5 µM (active) | AC50 [13]: 37.1 µM (active) | AC50 [14]: 22.9 µM (active)

C[C@@H]1CCCCO[C@H](CN(C)S(=O)(=O)c2ccc(Cl)cc2)[C@@H](C)CN([C@@H](C)CO)C(=O)c2cc(NS(=O)(=O)c3ccc(F)cc3)ccc2O1
AC50 (Paired box protein Pax-8): 7.67 µM (active) | AC50 [11]: 11.5 µM (active) | AC50 [12]: 39 µM (active) | AC50 [14]: 62.8 µM (active)

COc1ccc(C#Cc2ccc([C@@H]3[C@H](CO)N4CCCCN(Cc5ccccc5F)C[C@@H]34)cc2)cc1
AC50 [15]: 0.756 µM (active) | AC50 [16]: 9.38 µM (active)

O=S(=O)(c1ccc(F)cc1)N1C[C@@H]2N[C@H](C1)[C@@H]2c1ccc(-c2ccc(F)cc2)cc1
AC50 [15]: 7.37 µM (active) | AC50 [16]: 11 µM (active)
